Consider twelve compounds from US20100249145A1, “Inhibitors of VEGF Receptor and HGF Receptor Signaling” (Methylgene, Inc., priority 2005, published 2010).

One test concerns A549. Description: In vivo solid tumor disease model, A549 xenograft. Further details: species or system female athymic CD 1 mice.
The subject of another test is DU145. Description: In vivo solid tumor disease model, DU145 xenograft. The arrangement: species or system female athymic CD 1 mice. The settings on record: 10 days.
The test system of the next test is U87 cells. Nature of the test: In vivo solid tumor disease model, U87 xenograft. Further details: species or system female athymic CD 1 mice. Conditions: U87MG. The source says:
(§1) In Vivo Solid Tumor Disease Model
(§2) This test measures the capacity of compounds to inhibit solid tumor growth.
(§3) Tumor xenografts were established in the flank of female athymic CD 1 mice (Charles River Inc.), by subcutaneous injection of 1×10^6U87, A431 or SKLMS cells/mouse. Once established, tumors were then serially passaged s.c. in nude mice hosts. Tumor fragments from these host animals were used in subsequent compound evaluation experiments. For compound evaluation experiments female nude mice weighing approximately 20 g were implanted s.c. by surgical implantation with tumor fragments of ˜30 mg from donor tumors. When the tumors were approximately 100 mm^3 in size (˜7-10 days following implantation), the animals were randomized a separated into treatment and control groups. Each group contained 6-8 tumor-bearing mice, each of which was ear-tagged and followed individually throughout the experiment
(§4) Mice were weighed and tumor measurements are taken by calipers three times weekly, starting on Day 1. These tumor measurements were converted to tumor volume by the well-known formula (L+W/4)^34/3π. The experiment was terminated when the control tumors reached a size of approximately 1500 mm^3. In this model, the change in mean tumor volume for a compound treated group/the change in mean tumor volume of the control group (non-treated or vehicle treated)×100 (ΔT/ΔC) was subtracted from 100 to give the percent tumor growth inhibition (% TGI) for each test compound. In addition to tumor volumes, body weight of animals were monitored twice weekly for up to 3 weeks.
(§5) Regiment of administration was once daily.

In another test the test system is SKLMS cells. Nature of the test: In vivo solid tumor disease model, SKLMS xenograft. The settings on record: SKLMS40. Further details: species or system female athymic CD 1 mice.
Text: as §1, §2, §3, §4, §5

Test [1] concerns the target T1, recombinant human c-Met/HGF receptor (Homo sapiens, UniProt P08581).
T1 construct: His tag (histidine tag from pBlueBacHis2A); made in house; host or cells: Hi-5 cells (Trichoplusia ni), recombinant baculovirus
Description: In vitro receptor tyrosine kinase assay (DELFIA), c-Met/HGF receptor. Format: biochemical. Conditions: Table 30; ATP 10 uM, enzyme 25 nM; read-out: C-Met (enz.) (IC50).

A further test addresses T2, VEGF receptor KDR (Homo sapiens, UniProt P35968).
T2 construct: made in house; host or cells: Sf9 cells (Spodoptera frugiperda), recombinant baculovirus
Description: In vitro receptor tyrosine kinase assay (DELFIA), VEGF receptor KDR. Format: biochemical. Conditions: Table 30; ATP 0.6 uM, enzyme 5 nM; read-out: VEGF(enz.) (IC50).

For another test, the target named is TPR-MET fusion protein (Homo sapiens, UniProt P08581). Description: C-Met phosphorylation cell-based assay (MNNGHOS cells, immunoblot). The settings on record: Table 30, 3 hours treatment, read-out: C-Met cell-based Y1230-34-35 tpr-met inhibition (IC50). An excerpt: C-Met Phosphorylation Cell-Based Assay
TPR-MET fusion protein, sequence (P08581 with tags, fused parts or gaps): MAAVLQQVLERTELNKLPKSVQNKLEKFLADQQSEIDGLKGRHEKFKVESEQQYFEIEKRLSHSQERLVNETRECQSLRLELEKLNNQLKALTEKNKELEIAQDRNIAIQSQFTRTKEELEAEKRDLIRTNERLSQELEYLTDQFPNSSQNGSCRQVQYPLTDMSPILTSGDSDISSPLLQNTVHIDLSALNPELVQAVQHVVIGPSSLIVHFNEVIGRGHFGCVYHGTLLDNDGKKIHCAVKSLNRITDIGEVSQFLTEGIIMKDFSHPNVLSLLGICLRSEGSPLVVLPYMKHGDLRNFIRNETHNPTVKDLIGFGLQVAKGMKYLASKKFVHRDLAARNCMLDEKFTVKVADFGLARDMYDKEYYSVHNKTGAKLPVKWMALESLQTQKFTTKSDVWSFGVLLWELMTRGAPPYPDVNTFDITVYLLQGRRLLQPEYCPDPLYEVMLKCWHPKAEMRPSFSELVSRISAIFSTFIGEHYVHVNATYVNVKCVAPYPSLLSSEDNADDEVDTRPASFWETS
A general note: A western blot detects proteins with antibodies after separation by electrophoresis.

For the next test, the system named is A431 cells. Nature of the test: In vivo solid tumor disease model, A431 xenograft. Further details: species or system female athymic CD 1 mice. The settings on record: 30 mg/kg once daily IP, vehicle DMSO, 14 days.
Text: as §1, §2, §3, §4, §5

The test system of the next test is HCT116. Description: In vivo solid tumor disease model, HCT116 xenograft. Further details: species or system female athymic CD 1 mice. Conditions: 14 days.
[2] abbreviates: 30 mg/kg once daily IP, vehicle DMSO, 14 days.
[3] abbreviates: 75 mg/kg once daily PO, vehicle 5% DMSO - 1% Tween-80 in water, 10 days.
The mark [4] stands for this setting: 75 mg/kg once daily PO, vehicle 5% DMSO - 1% Tween-80 in water, 14 days.
Where [5] appears, read: 15 mg/kg once daily IP, vehicle DMSO.
[6] abbreviates: 30 mg/kg once daily IP, vehicle DMSO.
Where [7] appears, read: 30 mg/kg once daily IP, vehicle DMSO, 10 days.
Setting [8] is: 15 mg/kg once daily IP, vehicle DMSO, 10 days.

T1 sequence (P08581 1078-1337): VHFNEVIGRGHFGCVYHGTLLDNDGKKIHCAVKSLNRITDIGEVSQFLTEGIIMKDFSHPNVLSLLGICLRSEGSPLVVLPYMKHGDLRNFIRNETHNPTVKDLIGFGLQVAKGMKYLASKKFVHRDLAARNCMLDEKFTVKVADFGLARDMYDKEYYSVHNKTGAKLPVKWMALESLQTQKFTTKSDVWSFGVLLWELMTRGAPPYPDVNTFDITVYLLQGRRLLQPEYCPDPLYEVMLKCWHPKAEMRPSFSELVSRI
T2 sequence (P35968 806-1356): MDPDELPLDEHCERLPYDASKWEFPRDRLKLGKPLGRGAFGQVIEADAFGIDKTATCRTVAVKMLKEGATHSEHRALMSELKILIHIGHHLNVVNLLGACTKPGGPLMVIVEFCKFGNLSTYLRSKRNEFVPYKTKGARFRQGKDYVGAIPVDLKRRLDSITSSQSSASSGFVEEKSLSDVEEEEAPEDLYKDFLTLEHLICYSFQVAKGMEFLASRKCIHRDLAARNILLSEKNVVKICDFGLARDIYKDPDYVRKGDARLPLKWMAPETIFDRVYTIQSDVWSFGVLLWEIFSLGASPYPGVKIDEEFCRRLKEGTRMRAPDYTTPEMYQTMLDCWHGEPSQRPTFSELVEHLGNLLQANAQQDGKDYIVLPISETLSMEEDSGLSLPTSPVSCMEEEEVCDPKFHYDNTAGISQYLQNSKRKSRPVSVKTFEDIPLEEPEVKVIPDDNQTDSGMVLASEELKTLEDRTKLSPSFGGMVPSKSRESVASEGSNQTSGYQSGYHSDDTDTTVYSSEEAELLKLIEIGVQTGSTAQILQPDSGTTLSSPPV

Consider `Cn1cnc(-c2cc3nccc(Oc4ccc(NC(=S)NC(=O)Cc5ccccc5)cc4F)c3s2)c1` [Example 76, N-(3-Fluoro-4-(2-(1-methyl-1H-imidazol-4-yl)thieno[3,2-b]pyridin-7-yloxy)phenylcarbamothioyl)-2-phenylacetamide], for which the “Tumor Growth Inhibition (%)” value in the test on A549 (setting [2]) is “b (% TGI in the range of 50-74)”; with A549 (setting [3]), “b (% TGI in the range of 50-74)”; in the test on A549 (setting [4]) it was “c (% TGI in the range of 25-49)”; with DU145 (75 mg/kg once daily PO, vehicle 5% DMSO - 1% Tween-80 in water), “c (% TGI in the range of 25-49)”.

Take `CCn1cnc(-c2cc3nccc(Oc4ccc(NC(=S)NC(=O)Cc5ccccc5OC)cc4F)c3s2)c1` [Example 243, 1-{4-[2-(1-Ethyl-1H-imidazol-4-yl)-thieno[3,2-b]pyridin-7-yloxy]-3-fluoro-phenyl}-3-[2-(2-methoxy-phenyl)-acetyl]-thiourea]: the “Tumor Growth Inhibition (%)” value is recorded as “b (% TGI in the range of 50-74)” in the test with U87 cells (setting [4]) and “b (% TGI in the range of 50-74)” in the test on SKLMS cells (75 mg/kg once daily PO, vehicle 5% DMSO - 1% Tween-80 in water, 11 days).

As to `O=C(Cc1ccccc1)NC(=S)Nc1ccc(Oc2ccnc3cc(C(=O)N4CCCC4)sc23)c(F)c1` [Example 37, 1-{3-Fluoro-4-[2-(pyrrolidine-1-carbonyl)-thieno[3,2-b]pyridin-7-yloxy]-phenyl}-3-phenylacetyl-thiourea], the figures for the half-inhibitory concentration (IC50) (in test [1]; on VEGF receptor KDR; at TPR-MET fusion protein) were 50 to 250 nM, less than 50 nM and less than 50 nM, respectively. The “Tumor Growth Inhibition (%)” value is given as “b (% TGI in the range of 50-74)” in the test on U87 cells (15 mg/kg once daily IV, vehicle 50/50 DMSO:40/60 PEG/0.2 N HCl in saline, 10 days); “c (% TGI in the range of 25-49)” in the test with U87 cells (30 mg/kg once daily IV, vehicle 50/50 DMSO:40/60 PEG/0.2 N HCl in saline, 10 days); “b (% TGI in the range of 50-74)” in the test with A431 cells; “c (% TGI in the range of 25-49)” in the test on A549 (setting [2]); “d (% TGI in the range of 0-24)” in the test with DU145 (setting [5]); “d (% TGI in the range of 0-24)” with DU145 (setting [6]).

Consider `O=C(Cc1ccccc1)NC(=S)Nc1ccc(Oc2ccnc3cc(C(=O)N4CC[C@@H](O)C4)sc23)c(F)c1` [Example 38, (R)-N-(3-Fluoro-4-(2-(3-hydroxypyrrolidine-1-carbonyl)thieno[3,2-b]pyridin-7-yloxy)phenylcarbamothioyl)-2-phenylacetamide], for which the “Tumor Growth Inhibition (%)” value in the test with A431 cells and in the test with A549 (setting [2]) was “c (% TGI in the range of 25-49)” throughout.

As to `CC(C)(C)OC(=O)NC1CCN(C(=O)c2cc3ncnc(Oc4ccc(NC(=S)NC(=O)Cc5ccccc5)cc4F)c3s2)C1` (centres unmarked) [Example 148, tert-Butyl 1-(4-(2-fluoro-4-(3-(2-phenylacetyl)thioureido)phenoxy)thieno[3,2-d]pyrimidine-6-carbonyl)pyrrolidin-3-ylcarbamate], the “Tumor Growth Inhibition (%)” value with U87 cells (30 mg/kg once daily IP, vehicle 50/50 DMSO:40/60 PEG/0.2 N HCl in saline, 10 days) is listed as “c (% TGI in the range of 25-49)”; in the test on DU145 (setting [6]), “c (% TGI in the range of 25-49)”.

With `O=C(Cc1ccccc1)NC(=S)Nc1ccc(Oc2ccnc3cc(-c4nccs4)sc23)c(F)c1` [Example 12, 1-(4-(2-(Thiazol-2-yl)thieno[3,2-b]pyridin-7-yloxy)-3-fluorophenyl)-3-(2-phenylacetyl)thiourea], the IC50 (in general, the point on the concentration scale where inhibition reaches its midpoint) in test [1] was 50 to 250 nM; at VEGF receptor KDR, less than 50 nM; on TPR-MET fusion protein, less than 50 nM. For the same compound, the “Tumor Growth Inhibition (%)” value with U87 cells (setting [2]) was “b (% TGI in the range of 50-74)”; with HCT116 (HST116, 30 mg/kg once daily IP, vehicle DMSO) it was “c (% TGI in the range of 25-49)”.

Take `CCn1cnc(-c2cc3nccc(Oc4ccc(NC(=S)NC(=O)Cc5ccccc5F)cc4F)c3s2)c1` [Example 242, 1-{4-[2-(1-Ethyl-1H-imidazol-4-yl)-thieno[3,2-b]pyridin-7-yloxy]-3-fluoro-phenyl}-3-[2-(2-fluoro-phenyl)-acetyl]-thiourea]: the “Tumor Growth Inhibition (%)” value with U87 cells (setting [4]) is reported as “a (% TGI in the range of 75-100)”; with HCT116 (HCT116, 75 mg/kg once daily PO, vehicle 5% DMSO - 1% Tween-80 in water), “b (% TGI in the range of 50-74)”.

For the compound `CCn1cnc(-c2cc3nccc(Oc4ccc(NC(=S)NC(=O)Cc5ccccc5)cc4F)c3s2)c1` [Example 77, N-(4-(2-(1-Ethyl-1H-imidazol-4-yl)thieno[3,2-b]pyridin-7-yloxy)-3-fluorophenylcarbamothioyl)-2-phenylacetamide], the “Tumor Growth Inhibition (%)” value in the test with U87 cells (setting [4]) was “b (% TGI in the range of 50-74)”; with SKLMS cells (75 mg/kg once daily PO, vehicle 5% DMSO - 1% Tween-80 in water, 6 days) it was “d (% TGI in the range of 0-24)”; with A549 (setting [7]), “b (% TGI in the range of 50-74)”; with A549 (setting [3]) it was “b (% TGI in the range of 50-74)”.

Regarding `Cl.O=C(Cc1c(F)cccc1F)NC(=S)Nc1ccc(Oc2ccnc3cc(C(=O)N4CCCC4)sc23)c(F)c1` [Example 157, 2-(2,6-Difluorophenyl)-N-(3-fluoro-4-(2-(pyrrolidine-1-carbonyl)thieno[3,2-b]pyridin-7-yloxy)phenylcarbamothioyl)acetamide hydrochloride], the “Tumor Growth Inhibition (%)” value with A431 cells and with A549 (setting [2]) was “c (% TGI in the range of 25-49)” each time.

As for `Cn1cnnc1-c1cc2nccc(Oc3ccc(NC(=S)NC(=O)Cc4ccccc4)cc3F)c2s1` [Example 75, N-(3-Fluoro-4-(2-(4-methyl-4H-1,2,4-triazol-3-yl)thieno[3,2-b]pyridin-7-yloxy)phenylcarbamothioyl)-2-phenylacetamide], the IC50 at VEGF receptor KDR is less than 50 nM. For the same compound, the “Tumor Growth Inhibition (%)” value in the test on U87 cells (setting [8]) was “d (% TGI in the range of 0-24)”; with U87 cells (setting [7]) it was “c (% TGI in the range of 25-49)”; with U87 cells (setting [2]), “c (% TGI in the range of 25-49)”; with U87 cells (100 mg/kg once daily PO, vehicle 5% DMSO - 1% Tween-80 in water, 14 days), “b (% TGI in the range of 50-74)”; in the test with SKLMS cells (setting [8]), “b (% TGI in the range of 50-74)”; in the test on A549 (75 mg/kg once daily PO, vehicle 5% DMSO - 1% Tween-80 in water, 12 days), “b (% TGI in the range of 50-74)”. Also, the “Tumor Growth Inhibition (%)” value in the test on DU145 (setting [5]) is given as “c (% TGI in the range of 25-49)”.

As to `Cn1cc(-c2cc3nccc(Oc4ccc(NC(=S)NC(=O)Cc5ccccc5)cc4F)c3s2)cn1` [Example 81, N-(3-Fluoro-4-(2-(1-methyl-1H-pyrazol-4-yl)thieno[3,2-b]pyridin-7-yloxy)phenylcarbamothioyl)-2-phenylacetamide], the “Tumor Growth Inhibition (%)” value in the test with SKLMS cells (setting [4]) is on record as “c (% TGI in the range of 25-49)”.

Regarding `NC(=O)[C@@H]1CCCN1C(=O)c1cc2nccc(Oc3ccc(NC(=S)NC(=O)Cc4ccccc4)cc3F)c2s1` [Example 40, (S)-1-(7-(2-Fluoro-4-(3-(2-phenylacetyl)thioureido)phenoxy)thieno[3,2-b]pyridine-2-carbonyl)pyrrolidine-2-carboxamide], the IC50 in test [1] is 50 to 250 nM; at VEGF receptor KDR, less than 50 nM; on TPR-MET fusion protein, 50 to 250 nM.
